Laboratory results published in ChEMBL document CHEMBL4049403, “Oligo-aspartic acid conjugates with benzo[c][2,6]naphthyridine-8-carboxylic acid scaffold as picomolar inhibitors of CK2” (Bioorg Med Chem, 2017).
Where a SMILES comes first, the peptide text is derived from it. The star is where a group is joined. X1 = O=C(O)c1ccc2c(c1)nc(OCCCCCCCCC(=O)*)c1ccncc12

Columns and labels:
[1] = target: Homeodomain-interacting protein kinase 2 (Homo sapiens) (UniProt Q9H2X6); experiment: Inhibition of human HIPK2 assessed as residual activity at 1 uM in presence of 33P-ATP by filter-binding assay relative to control
[2] = target: Mitogen-activated protein kinase 15 (Homo sapiens) (UniProt Q8TD08); experiment: Inhibition of human ERK8 assessed as residual activity at 1 uM in presence of 33P-ATP by filter-binding assay relative to control
[3] = target: Mitogen-activated protein kinase kinase kinase 11 (Homo sapiens) (UniProt Q16584); experiment: Inhibition of human MLK3 assessed as residual activity at 1 uM in presence of 33P-ATP by filter-binding assay relative to control
[4] = target: Serine/threonine-protein kinase TBK1 (Homo sapiens) (UniProt Q9UHD2); experiment: Inhibition of human TBK1 assessed as residual activity at 1 uM in presence of 33P-ATP by filter-binding assay relative to control
[5] = target: Angiopoietin-1 receptor (Homo sapiens) (UniProt Q02763); experiment: Inhibition of human TIE2 assessed as residual activity at 1 uM in presence of 33P-ATP by filter-binding assay relative to control
[6] = target: Ribosomal protein S6 kinase alpha-1 (Homo sapiens) (UniProt Q15418); experiment: Inhibition of human RSK1 assessed as residual activity at 1 uM in presence of 33P-ATP by filter-binding assay relative to control
[7] = target: Serine/threonine-protein kinase 26 (Homo sapiens) (UniProt Q9P289); experiment: Inhibition of human MST4 assessed as residual activity at 1 uM in presence of [33P]ATP by filter binding assay relative to control
[8] = target: Casein kinase I isoform delta (Homo sapiens) (UniProt P48730); experiment: Inhibition of human CK1delta assessed as residual activity at 1 uM in presence of [33P]ATP by filter binding assay relative to control
[9] = target: Tyrosine-protein kinase SYK (Homo sapiens) (UniProt P43405); experiment: Inhibition of human SYK assessed as residual activity at 1 uM in presence of [33P]ATP by filter binding assay relative to control
[10] = target: 3-phosphoinositide-dependent protein kinase 1 (Homo sapiens) (UniProt O15530); experiment: Inhibition of human PDK1 assessed as residual activity at 1 uM in presence of [33P]ATP by filter binding assay relative to control
[11] = target: TGF-beta receptor type-1 (Homo sapiens) (UniProt P36897); experiment: Inhibition of human TGFBR1 assessed as residual activity at 1 uM in presence of [33P]ATP by filter binding assay relative to control
[12] = target: Ephrin type-A receptor 2 (Homo sapiens) (UniProt P29317); experiment: Inhibition of human EPHA2 assessed as residual activity at 1 uM in presence of [33P]ATP by filter binding assay relative to control
[13] = target: Mitogen-activated protein kinase kinase kinase kinase 5 (Homo sapiens) (UniProt Q9Y4K4); experiment: Inhibition of human MAP4K5 assessed as residual activity at 1 uM in presence of [33P]ATP by filter binding assay relative to control
[14] = target: Serine/threonine-protein kinase N2 (Homo sapiens) (UniProt Q16513); experiment: Inhibition of human PRK2 assessed as residual activity at 1 uM in presence of [33P]ATP by filter binding assay relative to control
[15] = target: Protein kinase C alpha type (Homo sapiens) (UniProt P17252); experiment: Inhibition of human PKCa assessed as residual activity at 1 uM in presence of [33P]ATP by filter binding assay relative to control
[16] = species: Homo sapiens; experiment: Inhibition of human PKA assessed as residual activity at 1 uM in presence of [33P]ATP by filter binding assay relative to control
[17] = target: Mitogen-activated protein kinase kinase kinase kinase 3 (Homo sapiens) (UniProt Q8IVH8); experiment: Inhibition of human MAP4K3 assessed as residual activity at 1 uM in presence of [33P]ATP by filter binding assay relative to control
[18] = target: Serine/threonine-protein kinase WNK1 (Homo sapiens) (UniProt Q9H4A3); experiment: Inhibition of human WNK1 assessed as residual activity at 1 uM in presence of [33P]ATP by filter binding assay relative to control
[19] = species: Homo sapiens; experiment: Inhibition of human PHK assessed as residual activity at 1 uM in presence of [33P]ATP by filter binding assay relative to control
[20] = target: Aurora kinase A (Homo sapiens) (UniProt O14965); experiment: Inhibition of human Aurora A assessed as residual activity at 1 uM in presence of [33P]ATP by filter binding assay relative to control
[21] = target: MAP kinase-activated protein kinase 2 (Homo sapiens) (UniProt P49137); experiment: Inhibition of human MAPKAP-K2 assessed as residual activity at 1 uM in presence of [33P]ATP by filter binding assay relative to control
[22] = target: Tyrosine-protein kinase ZAP-70 (Homo sapiens) (UniProt P43403); experiment: Inhibition of human ZAP70 assessed as residual activity at 1 uM in presence of [33P]ATP by filter binding assay relative to control
[23] = target: Mitogen-activated protein kinase kinase kinase 1 (Homo sapiens) (UniProt Q13233); experiment: Inhibition of human MEKK1 assessed as residual activity at 1 uM in presence of [33P]ATP by filter binding assay relative to control
[24] = target: Mitogen-activated protein kinase 12 (Homo sapiens) (UniProt P53778); experiment: Inhibition of human P38g MAPK assessed as residual activity at 1 uM in presence of [33P]ATP by filter binding assay relative to control
[25] = target: Discoidin domain-containing receptor 2 (Homo sapiens) (UniProt Q16832); experiment: Inhibition of human DDR2 assessed as residual activity at 1 uM in presence of [33P]ATP by filter binding assay relative to control

Sequence of Tyrosine-protein kinase ZAP-70 (Homo sapiens) (P43403 whole entry): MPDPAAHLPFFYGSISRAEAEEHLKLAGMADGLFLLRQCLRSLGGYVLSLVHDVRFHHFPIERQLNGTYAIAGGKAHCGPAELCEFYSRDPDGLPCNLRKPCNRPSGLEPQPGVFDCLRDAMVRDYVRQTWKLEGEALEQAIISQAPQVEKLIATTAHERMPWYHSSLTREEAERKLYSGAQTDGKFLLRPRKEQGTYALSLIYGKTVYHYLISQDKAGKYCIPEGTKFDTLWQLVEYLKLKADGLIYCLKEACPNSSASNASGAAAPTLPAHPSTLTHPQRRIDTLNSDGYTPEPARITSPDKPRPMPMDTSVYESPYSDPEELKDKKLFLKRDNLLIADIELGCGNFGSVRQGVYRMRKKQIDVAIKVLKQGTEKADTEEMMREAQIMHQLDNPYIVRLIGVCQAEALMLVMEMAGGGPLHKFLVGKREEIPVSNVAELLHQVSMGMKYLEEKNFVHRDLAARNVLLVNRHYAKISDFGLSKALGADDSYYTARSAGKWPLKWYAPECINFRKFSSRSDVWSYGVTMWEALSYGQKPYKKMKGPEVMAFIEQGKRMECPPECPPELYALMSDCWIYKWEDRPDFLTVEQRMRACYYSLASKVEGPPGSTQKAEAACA
Sequence of Aurora kinase A (Homo sapiens) (O14965 whole entry): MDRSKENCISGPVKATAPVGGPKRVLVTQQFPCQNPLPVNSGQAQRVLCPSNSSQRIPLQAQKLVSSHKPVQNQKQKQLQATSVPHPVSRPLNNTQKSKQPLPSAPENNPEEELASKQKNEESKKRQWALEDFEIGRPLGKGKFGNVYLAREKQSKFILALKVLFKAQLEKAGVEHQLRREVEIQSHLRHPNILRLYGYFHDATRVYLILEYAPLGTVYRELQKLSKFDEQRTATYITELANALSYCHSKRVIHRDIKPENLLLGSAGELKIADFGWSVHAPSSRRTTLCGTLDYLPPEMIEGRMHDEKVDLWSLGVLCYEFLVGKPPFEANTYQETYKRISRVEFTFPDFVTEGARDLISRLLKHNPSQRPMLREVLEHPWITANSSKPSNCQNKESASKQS
Sequence of Mitogen-activated protein kinase kinase kinase kinase 5 (Homo sapiens) (Q9Y4K4 whole entry, looked up): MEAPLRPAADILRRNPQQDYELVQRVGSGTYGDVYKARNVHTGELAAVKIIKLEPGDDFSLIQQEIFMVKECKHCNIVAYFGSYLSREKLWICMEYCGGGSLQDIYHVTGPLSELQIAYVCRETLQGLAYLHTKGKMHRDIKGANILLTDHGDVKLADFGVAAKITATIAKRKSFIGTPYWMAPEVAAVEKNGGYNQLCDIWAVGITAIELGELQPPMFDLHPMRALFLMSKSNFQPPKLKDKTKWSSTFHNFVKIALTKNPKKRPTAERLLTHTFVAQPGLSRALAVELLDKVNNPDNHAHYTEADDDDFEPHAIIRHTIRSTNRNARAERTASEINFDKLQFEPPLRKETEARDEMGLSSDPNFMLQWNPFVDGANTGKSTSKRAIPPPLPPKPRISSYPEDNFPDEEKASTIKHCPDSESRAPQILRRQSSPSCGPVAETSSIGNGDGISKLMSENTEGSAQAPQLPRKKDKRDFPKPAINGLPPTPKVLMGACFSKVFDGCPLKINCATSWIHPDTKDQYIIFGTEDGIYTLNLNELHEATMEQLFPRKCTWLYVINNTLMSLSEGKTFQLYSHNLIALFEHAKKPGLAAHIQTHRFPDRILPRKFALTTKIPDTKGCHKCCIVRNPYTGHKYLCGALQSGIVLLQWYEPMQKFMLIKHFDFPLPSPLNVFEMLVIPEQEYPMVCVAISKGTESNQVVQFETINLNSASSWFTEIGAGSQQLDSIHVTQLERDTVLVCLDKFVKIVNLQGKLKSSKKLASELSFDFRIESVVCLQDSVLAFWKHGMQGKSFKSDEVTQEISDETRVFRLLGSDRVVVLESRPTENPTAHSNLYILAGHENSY
Sequence of Mitogen-activated protein kinase kinase kinase kinase 3 (Homo sapiens) (Q8IVH8 whole entry): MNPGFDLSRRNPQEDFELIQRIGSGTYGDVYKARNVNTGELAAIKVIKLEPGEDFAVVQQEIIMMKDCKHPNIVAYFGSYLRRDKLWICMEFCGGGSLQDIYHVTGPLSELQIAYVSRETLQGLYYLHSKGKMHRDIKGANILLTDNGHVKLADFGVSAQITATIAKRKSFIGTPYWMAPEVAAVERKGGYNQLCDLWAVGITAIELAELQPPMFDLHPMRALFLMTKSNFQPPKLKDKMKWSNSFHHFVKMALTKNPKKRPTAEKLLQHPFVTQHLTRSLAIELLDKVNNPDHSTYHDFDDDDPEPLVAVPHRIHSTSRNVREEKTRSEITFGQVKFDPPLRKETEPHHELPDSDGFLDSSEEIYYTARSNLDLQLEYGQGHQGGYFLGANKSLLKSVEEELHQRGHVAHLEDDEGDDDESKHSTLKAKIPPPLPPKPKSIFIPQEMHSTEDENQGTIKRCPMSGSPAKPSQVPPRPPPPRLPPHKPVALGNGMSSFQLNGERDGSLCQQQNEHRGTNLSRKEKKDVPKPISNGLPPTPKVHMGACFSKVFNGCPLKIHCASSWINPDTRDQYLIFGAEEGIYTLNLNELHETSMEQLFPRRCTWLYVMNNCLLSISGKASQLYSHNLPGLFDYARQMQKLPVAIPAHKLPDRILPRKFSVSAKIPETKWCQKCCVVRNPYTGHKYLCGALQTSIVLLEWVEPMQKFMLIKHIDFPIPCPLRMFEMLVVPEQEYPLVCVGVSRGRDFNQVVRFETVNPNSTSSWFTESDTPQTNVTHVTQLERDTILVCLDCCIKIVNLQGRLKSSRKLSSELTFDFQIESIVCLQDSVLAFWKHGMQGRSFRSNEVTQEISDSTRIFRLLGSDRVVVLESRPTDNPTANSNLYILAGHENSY
Sequence of MAP kinase-activated protein kinase 2 (Homo sapiens) (P49137 whole entry, looked up): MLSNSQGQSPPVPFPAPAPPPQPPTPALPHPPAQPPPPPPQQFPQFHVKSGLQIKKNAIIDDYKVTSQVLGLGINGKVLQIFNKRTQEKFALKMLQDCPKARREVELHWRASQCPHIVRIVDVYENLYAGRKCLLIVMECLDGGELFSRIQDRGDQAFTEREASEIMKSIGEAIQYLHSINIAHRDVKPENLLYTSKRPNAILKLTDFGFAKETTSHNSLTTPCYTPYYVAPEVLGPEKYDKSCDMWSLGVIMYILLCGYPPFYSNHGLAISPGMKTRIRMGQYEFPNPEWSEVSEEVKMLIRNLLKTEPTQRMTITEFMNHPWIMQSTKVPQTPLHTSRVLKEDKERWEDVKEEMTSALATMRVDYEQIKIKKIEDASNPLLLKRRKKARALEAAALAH
Sequence of Mitogen-activated protein kinase 12 (Homo sapiens) (P53778 whole entry, the tested form may be a part): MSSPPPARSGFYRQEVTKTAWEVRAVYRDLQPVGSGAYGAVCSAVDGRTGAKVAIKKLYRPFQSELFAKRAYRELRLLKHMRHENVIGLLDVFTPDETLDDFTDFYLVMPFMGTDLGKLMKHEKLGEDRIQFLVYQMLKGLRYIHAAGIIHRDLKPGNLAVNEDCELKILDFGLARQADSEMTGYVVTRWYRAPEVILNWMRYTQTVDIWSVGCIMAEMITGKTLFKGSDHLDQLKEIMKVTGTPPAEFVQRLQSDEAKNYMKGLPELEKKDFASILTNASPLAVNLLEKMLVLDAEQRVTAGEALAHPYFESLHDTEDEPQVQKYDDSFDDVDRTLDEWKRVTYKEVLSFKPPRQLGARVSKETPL
Sequence of Mitogen-activated protein kinase kinase kinase 11 (Homo sapiens) (Q16584 whole entry, looked up): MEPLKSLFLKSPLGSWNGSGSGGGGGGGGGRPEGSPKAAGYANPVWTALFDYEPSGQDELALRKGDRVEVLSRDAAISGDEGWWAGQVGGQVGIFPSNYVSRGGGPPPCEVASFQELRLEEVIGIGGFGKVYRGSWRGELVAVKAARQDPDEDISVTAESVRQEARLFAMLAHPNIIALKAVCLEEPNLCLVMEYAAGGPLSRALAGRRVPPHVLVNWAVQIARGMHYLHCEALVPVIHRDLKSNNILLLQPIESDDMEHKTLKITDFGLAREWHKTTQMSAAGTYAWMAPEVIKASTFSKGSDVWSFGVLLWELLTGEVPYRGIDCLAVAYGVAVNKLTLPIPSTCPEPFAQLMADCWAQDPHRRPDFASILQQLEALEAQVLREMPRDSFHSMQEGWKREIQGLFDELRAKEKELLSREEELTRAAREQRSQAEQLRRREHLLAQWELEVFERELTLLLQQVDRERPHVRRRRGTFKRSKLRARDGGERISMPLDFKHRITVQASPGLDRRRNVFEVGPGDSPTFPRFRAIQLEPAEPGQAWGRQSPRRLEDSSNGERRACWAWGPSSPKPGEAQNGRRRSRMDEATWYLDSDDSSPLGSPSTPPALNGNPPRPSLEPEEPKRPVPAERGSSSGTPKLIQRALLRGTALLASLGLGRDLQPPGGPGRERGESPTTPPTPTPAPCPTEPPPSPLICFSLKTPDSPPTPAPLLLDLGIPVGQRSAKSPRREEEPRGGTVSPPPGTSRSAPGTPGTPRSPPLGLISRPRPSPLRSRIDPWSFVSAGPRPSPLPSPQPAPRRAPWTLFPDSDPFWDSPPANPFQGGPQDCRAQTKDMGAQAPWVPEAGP

Activity [1]: 5%
Activity [3]: 22%
Activity [4]: 34%
Activity [5]: 41%
Activity [6]: 50%
Activity [7]: 67%
Activity [8]: 82%
Activity [9]: 84%
Activity [10]: 84%
Activity [11]: 85%
Activity [12]: 87%
Activity [13]: 87%
Activity [14]: 90%
Activity [15]: 93%
Activity [16]: 94%
Activity [17]: 95%
Activity [18]: 96%
Activity [19]: 97%
Activity [20]: 97%
Activity [21]: 100%
Activity [22]: 103%
Activity [23]: 106%
Activity [24]: 107%
Activity [25]: 117%
SMILES: NCCCC[C@H](NC(=O)[C@H](CC(=O)O)NC(=O)[C@H](CC(=O)O)NC(=O)[C@H](CC(=O)O)NC(=O)[C@H](CC(=O)O)NC(=O)[C@H](CC(=O)O)NC(=O)[C@H](CC(=O)O)NC(=O)CCCCCCCCOc1nc2cc(C(=O)O)ccc2c2cnccc12)C(=O)O (X1-DDDDDDK-OH)
Activity [2]: 10%
